Test [1] has as its system pro-inflammatory cytokine IFN-γ secretion by mouse T cells stimulated by CD3/CD28 monoclonal antibodies. Put plainly: Inhibition of IFN-γ secretion by mouse T cells stimulated by CD3/CD28 monoclonal antibodies (ELISA). Format: cell-based. The conditions noted are these: T-cell, 48 h, C57BL/6 mouse T cells, CD3/CD28 mAb stimulation; for inhibition at 20 µM: read-out: Inhibitory rate (%, 20 μM). The method, then:
CD3, CD28 monoclonal antibodies, and kit for IFN-γ detection were purchased from BD Bioscience, Cell Counting Kit-8 (CCK-8) was purchased from MeilunBio®, and RPMI-1640 medium and fetal bovine serum were purchased from Biological Industries.
Preparation of samples to be tested: the 12 compounds of Example 1 were dissolved in DMSO, respectively to prepare 20 mM stock solutions.
Splenocytes were aseptically isolated from 6-8 week old female C57BL/6 mice, and T cells were isolated using a nylon wool column method. The T cells were then inoculated (4×10^5 cells/well) in a 96-well plate (which was coated with 5 μg/mL of CD3 monoclonal antibody). At the same time, a prepared compound solution of 40 μM, 20 μM, 10 μM, 5 μM, 2.5 μM, or 1.25 μM along with a 2 μg/mL solution of CD28 monoclonal antibody were added into each group, respectively, which were cultured in a 37° C./5% CO2 incubator. After 48 h, the supernatant of the cells was collected and the IFN-γ secretion in the supernatant was detected by an Enzyme-Linked Immuno-Sorbent Assay (ELISA); 10 μL of CCK-8 solution was added into each well, and OD450 was measured after incubation at 37° C. for 4 h to evaluate cell proliferation. […] The inhibitory activity of the compounds on IFN-γ was calculated, and the half-maximal inhibitory concentration (IC50) was analyzed using GraphPadPrism software.

Test [2] has as its system imiquimod-induced psoriasis mice. The test is described as follows: In vivo anti-psoriasis activity test on sesterterpenoid compound 6 (imiquimod-induced psoriasis mouse model). Conditions: 25 and 50 mg/kg intraperitoneal injection, day 1 to 6. The method, then: Establishment and pharmacodynamic study of a mouse model of imiquimod-induced psoriasis: the mice were randomly divided into a control group, a model group, a methotrexate (MTX) treatment (1 mg/kg) group, and Leucosceptrum canum sesterterpenoid treatment (50 mg/kg, 150 mg/kg, 450 mg/kg) groups, with 6 mice in each group. The mice were depilated on their backs before the experiment, and 62.5 mg of […] imiquimod cream was evenly applied on the backs of mice while an equivalent amount of Vaseline was applied on the backs of mice in the normal control group from the 1st day, the application was performed once a day for 6 d. From the 1st day 1 to the 6th day, each treatment group was given the drug by gavage. During the experiment, the mice were weighed and scored for the Psoriasis Area and Severity Index (PASI) according to the following criteria: 0 points, normal skin without erythema and scales; 1 point, mild erythema, a few fine scales, and the skin at the lesion being slightly higher than normal skin; 2 points, moderate red plaques, the surface of the lesions being covered with scales, and the lesions being flaky or moderately raised; 3 points, severe dark red plaques, almost all the lesions being covered with thick scales or obvious lesions; 4 points, extremely severe and dark red plaques, all lesions being covered with highly thick layered scales, and the thickening and protrusion of the lesions being extremely obvious. After the experiment, the back skin of the mice was taken to make pathological sections. The levels of pro-inflammatory cytokines IFN-γ and IL-17A in mouse serum were detected by ELISA.
A method for establishing the imiquimod-induced psoriasis mouse model was the same as that in Example 4. The mice were randomly divided into a control group, a model group, a methotrexate (MTX) treatment group (1 mg/kg), and compound 6 treatment groups (25 and 50 mg/kg), with 6 mice in each group. From the 1st day to the 6th day, drugs were given to each treatment group by intraperitoneal injection. During the experiment, the mice were weighed and scored for PASI. After the experiment, the back skin of the mice was taken to make pathological sections. The levels of pro-inflammatory cytokines IFN-γ and IL-17A in mouse serum were detected by ELISA.

For `COC1C=C(C)C(CC[C@@H](C)C(=O)[C@@]2(O)[C@H]3[C@@H](CC[C@@H]3C)[C@H](C)[C@]3(O)OCC(C)=C[C@@]32O)(OC)O1` (some centres unmarked) [Compound 10], the inhibition at 20 µM in test [1] is 10.4 ± 3.02%.

Take `CC(C)=C[C@]1(O)C(=O)[C@@H](C)[C@@H]2CC[C@H](C)[C@H]2[C@@]1(O)C(=O)[C@H](C)CCc1occc1C` [Compound 3]: in test [1], the inhibition at 20 µM was 30.5 ± 6.55%.

In the case of `CC1=C[C@@]2(O)[C@@](O)(OC1)[C@@H](C)[C@@H]1CC[C@H](C)[C@H]1[C@]2(O)C(=O)[C@H](C)CC(=O)c1occc1C` [Compound 7], the inhibition at 20 µM in test [1] was found to be 36.2 ± 8.27%.

`CC[C@@H](C)C(=O)[C@@]1(O)[C@H]2[C@@H](CC[C@@H]2C)[C@H](C)[C@]2(O)OCC(C)=C[C@@]21O` [Compound 4]: the inhibition at 20 µM in test [1] was found to be 26.7 ± 5.85%.

As for `COC1(CC[C@@H](C)C(=O)[C@@]2(O)[C@H]3[C@@H](CC[C@@H]3C)[C@H](C)[C@]3(O)OCC(C)=C[C@@]32O)OC(=O)C=C1C` (some centres unmarked) [Compound 9], the inhibition at 20 µM in test [1] was determined as 39.6 ± 7.93%.

For the compound `CC1=C[C@@]2(O)[C@@](O)(OC1)[C@@H](C)[C@@H]1CC[C@H](C)[C@H]1[C@]2(O)C(=O)[C@H](C)CCO` [Compound 5], the inhibition at 20 µM in test [1] is 10.7 ± 2.74%.

Consider `CC(C)=C[C@]1(O)C(=O)[C@@H](C)[C@@H]2CC[C@H](C)[C@H]2[C@@]1(O)C(=O)[C@H](C)CC[C@@H]1OC(=O)C=C1C` [Compound 2], for which, in test [1], the inhibition at 20 µM was found to be 51.3 ± 7.1%.

Turning to `CC1=C[C@@]2(O)[C@@](O)(OC1)[C@@H](C)[C@@H]1CC[C@H](C)[C@H]1[C@]2(O)C(=O)[C@H](C)CCC1=C(C)CC(=O)O1` [Compound 8], the inhibition at 20 µM in test [1] amounted to 43.1 ± 7.35%.

Consider `CC1=C[C@@]2(O)[C@@](O)(OC1)[C@@H](C)[C@@H]1CC[C@H](C)[C@H]1[C@@]2(O)C(=O)[C@@H](C)C[C@H]1C(=O)C(C)=C[C@@H]1O` [Compound 12], for which the inhibition at 20 µM in test [1] amounted to 33.8 ± 2.27%.

With `CC(C)=C[C@]1(O)C(=O)[C@@H](C)[C@@H]2CC[C@H](C)[C@H]2[C@]1(O)C(=O)[C@H](C)CC[C@@H]1OC(=O)C=C1C` [Compound 1], the inhibition at 20 µM in test [1] amounted to 32.1 ± 5.46%.

As to `CC1=C[C@@]2(O)[C@@](O)(OC1)[C@@H](C)[C@@H]1CC[C@H](C)[C@H]1[C@@]2(O)C(=O)[C@H](C)C[C@H]1C(=O)C(C)=C[C@@H]1O` [Compound 11], in test [1], the inhibition at 20 µM amounted to 23.4 ± 1.24%.

As to `CC1=C[C@@]2(O)[C@@](O)(OC1)[C@@H](C)[C@@H]1CC[C@H](C)[C@H]1[C@]2(O)C(=O)[C@H](C)CCc1occc1C` [Compound 6], in test [1], the inhibition at 20 µM is 66.8 ± 3.02% and the IC50 is 5.74 µM. Besides, in test [2], the “level of IFN-γ in the serum of psoriasis mice (FIG. 10A-10B, ELISA)” value was “significantly reduces”; the “level of IL-17A in the serum of psoriasis mice (FIG. 10A-10B, ELISA)” value is “significantly reduces”; the “pathological damage of the skin tissue of psoriasis mice (FIG. 9, HE staining)” value is listed as “significantly inhibits”; the “symptoms of psoriasis in mice (FIG. 8)” value is reported as “significantly improves”.

Values taken from US20260078110A1, “SESTERTERPENOID COMPOUNDS AND EXTRACT L01 OF LEUCOSCEPTRUM CANUM, AND USE THEREOF IN TREATMENT OF PSORIASIS” (Kunming Institute of Botany, CAS, priority 2023, published 2026).
